The supplement of paper PMC12698765
± gives the standard deviation of the averaged measurements.

Tests used:
[1] = test system: 409B2 hiPSC (iCRISPR Cas9, FRMD7 editing); experiment: MMEJ-attributed deletion frequency relative to solvent control (fold (ratio to mock)); higher = more MMEJ outcomes
Method: (§1)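 Subset screen of 55 drugs tested at 5 concentrations around the effective screening dose, in 409B2 iCRISPR Cas9 hiPSCs editing FRMD7 with a ssDNA donor. Drugs were applied for 24 h. Viability was read by resazurin and editing outcomes by amplicon sequencing (HDR, NHEJ <2 bp microhomology, MMEJ ≥2 bp microhomology). Values are relative to solvent mock controls; two biological replicates.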

[2] = test system: 409B2 hiPSC (iCRISPR Cas9, FRMD7 editing); experiment: cell survival relative to solvent control (fold (ratio to mock)); higher = more surviving cells
Method: as §1

[3] = test system: 409B2 hiPSC (iCRISPR Cas9, FRMD7 editing); experiment: HDR (precise edit) frequency relative to solvent control (fold (ratio to mock)); higher = more homology-directed repair outcomes
Method: as §1

[4] = test system: 409B2 hiPSC (iCRISPR Cas9, FRMD7 editing); experiment: NHEJ-attributed indel frequency relative to solvent control (fold (ratio to mock)); higher = more NHEJ outcomes
Method: as §1

SMILES | MMEJ-attributed deletion frequency ([1]; 200 nM) | MMEJ-attributed deletion frequency ([1]; 500 nM) | MMEJ-attributed deletion frequency ([1]; 1000 nM) | MMEJ-attributed deletion frequency ([1]; 2000 nM) | MMEJ-attributed deletion frequency ([1]; 5000 nM) | cell survival ([2]; 200 nM) | cell survival ([2]; 500 nM) | cell survival ([2]; 1000 nM) | cell survival ([2]; 2000 nM) | cell survival ([2]; 5000 nM) | HDR ([3]; 200 nM) | HDR ([3]; 500 nM) | HDR ([3]; 1000 nM) | HDR ([3]; 2000 nM) | HDR ([3]; 5000 nM) | NHEJ-attributed indel frequency ([4]; 200 nM) | NHEJ-attributed indel frequency ([4]; 500 nM) | NHEJ-attributed indel frequency ([4]; 1000 nM) | NHEJ-attributed indel frequency ([4]; 2000 nM) | NHEJ-attributed indel frequency ([4]; 5000 nM) | further results
O=C(O[C@H]1CN2CCC1CC2)N1CCc2ccccc2[C@@H]1c1ccccc1 [Solifenacin succinate] (in DMSO) | 0.989 ± 0.091 | 0.991 ± 0.017 | 0.924 ± 0.054 | 0.937 ± 0.033 | 1.01 ± 0.12 | 1.04 | 1.16 | 0.907 | 1.06 | 1.1 | 1.14 ± 0.017 | 1.06 ± 0.051 | 1.04 ± 0.12 | 1.02 ± 0.015 | 1.09 ± 0.039 | 0.9657 ± 0.0021 | 0.993 ± 0.015 | 0.999 ± 0.026 | 1.01 ± 0.017 | 0.989 ± 0.032 | 
CO[C@H]1O[C@@H]2O[C@@]3(C)CC[C@H]4[C@H](C)CC[C@@H]([C@H]1C)[C@@]24OO3 [Artemether (SM-224)] (in DMSO) | 0.853 ± 0.13 | 0.935 ± 0.072 | 0.804 ± 0.037 | 0.907 ± 0.14 | 0.946 ± 0.026 | 0.947 | 1.23 | 0.644 | 1.09 | 1.03 | 1.06 ± 0.036 | 1.13 ± 0.018 | 1.123 ± 0.0055 | 1.09 ± 0.11 | 1.17 ± 0.15 | 0.983 ± 0.012 | 0.976 ± 0.022 | 0.958 ± 0.011 | 1 ± 0.024 | 1.02 ± 0.037 | 
CC[C@]1(O)C[C@@H]2CN(CCc3c([nH]c4ccccc34)[C@@](C(=O)OC)(c3cc4c(cc3OC)N(C)[C@H]3[C@@](O)(C(=O)OC)[C@H](OC(C)=O)[C@]5(CC)C=CCN6CC[C@]43[C@@H]65)C2)C1 [vinblastine] (in DMSO) |  |  |  |  |  |  |  |  |  |  |  |  |  |  |  |  |  |  |  |  | MMEJ-attributed deletion frequency ([1]; 2 nM): 1.02 ± 0.27; MMEJ-attributed deletion frequency ([1]; 5 nM): 1.51 ± 0.71; MMEJ-attributed deletion frequency ([1]; 10 nM): 0.931 ± 0.61; MMEJ-attributed deletion frequency ([1]; 20 nM): 0.674 ± 0.053; MMEJ-attributed deletion frequency ([1]; 50 nM): 0.827 ± 0.05; cell survival ([2]; 2 nM): 0.524; cell survival ([2]; 5 nM): 0.114; cell survival ([2]; 10 nM): 0.0472; cell survival ([2]; 20 nM): 0.00549; cell survival ([2]; 50 nM): 0.0072; HDR ([3]; 2 nM): 0.877 ± 0.038; HDR ([3]; 5 nM): 0.65 ± 0.05; HDR ([3]; 10 nM): 0.556 ± 0.031; HDR ([3]; 20 nM): 0.249 ± 0.051; HDR ([3]; 50 nM): 0.248 ± 0.035; NHEJ-attributed indel frequency ([4]; 2 nM): 1.07 ± 0.05; NHEJ-attributed indel frequency ([4]; 5 nM): 0.982 ± 0.17; NHEJ-attributed indel frequency ([4]; 10 nM): 0.857 ± 0.17; NHEJ-attributed indel frequency ([4]; 20 nM): 0.415 ± 0.0047; NHEJ-attributed indel frequency ([4]; 50 nM): 0.557 ± 0.013
O=C1NC(=O)[C@@H](c2cn3c4c(cccc24)CCC3)[C@@H]1c1c[nH]c2ccccc12 [Tivantinib (ARQ 197)] (in DMSO) | 0.915 ± 0.074 | 0.98 ± 0.025 | 1 ± 0.088 | 1.48 ± 0.36 | 0.786 ± 0.051 | 0.979 | 1.04 | 0.271 | 0.0426 | 0.0118 | 1.01 ± 0.089 | 1.05 ± 0.015 | 0.897 ± 0.1 | 0.507 ± 0.081 | 0.281 ± 0.0069 | 0.949 ± 0.045 | 1.01 ± 0.025 | 1.115 ± 0.0054 | 1 ± 0.05 | 0.532 ± 0.069 | 
OC[C@H]1O[C@@H](c2ccc(F)c(Cc3cc4ccccc4s3)c2)[C@H](O)[C@@H](O)[C@@H]1O [Ipragliflozin] (in DMSO) | 0.94 ± 0.11 | 1.07 ± 0.08 |  |  |  | 1.12 | 0.95 |  |  |  | 1.02 ± 0.07 | 1.05 ± 0.067 |  |  |  | 1.01 ± 0.012 | 0.995 ± 0.032 |  |  |  | MMEJ-attributed deletion frequency ([1]; 20 nM): 0.982 ± 0.092; MMEJ-attributed deletion frequency ([1]; 50 nM): 0.909 ± 0.09; MMEJ-attributed deletion frequency ([1]; 100 nM): 0.913 ± 0.041; cell survival ([2]; 20 nM): 0.951; cell survival ([2]; 50 nM): 1.11; cell survival ([2]; 100 nM): 0.915; HDR ([3]; 20 nM): 1.09 ± 0.029; HDR ([3]; 50 nM): 1 ± 0.037; HDR ([3]; 100 nM): 0.984 ± 0.064; NHEJ-attributed indel frequency ([4]; 20 nM): 1 ± 0.038; NHEJ-attributed indel frequency ([4]; 50 nM): 0.9974 ± 0.0051; NHEJ-attributed indel frequency ([4]; 100 nM): 1.005 ± 0.0019
Cc1ccc(NC(=O)c2ccc(CN3CC[C@H](N(C)C)C3)c(C(F)(F)F)c2)cc1Nc1nccc(-c2cncnc2)n1 [Bafetinib (INNO-406)] (in DMSO) |  |  |  | 1.04 ± 0.012 | 0.89 ± 0.082 |  |  |  | 1.07 | 1.36 |  |  |  | 1.04 ± 0.053 | 1.066 ± 0.0049 |  |  |  | 0.9931 ± 0.002 | 1.004 ± 0.0057 | MMEJ-attributed deletion frequency ([1]; 10000 nM): 1.13 ± 0.045; MMEJ-attributed deletion frequency ([1]; 20000 nM): 1.32 ± 0.11; MMEJ-attributed deletion frequency ([1]; 50000 nM): 0.621; cell survival ([2]; 10000 nM): 0.818; cell survival ([2]; 20000 nM): 0.096; cell survival ([2]; 50000 nM): 0.0107; HDR ([3]; 10000 nM): 1.03 ± 0.1; HDR ([3]; 20000 nM): 0.775 ± 0.27; HDR ([3]; 50000 nM): 0.282; NHEJ-attributed indel frequency ([4]; 10000 nM): 1.06 ± 0.025; NHEJ-attributed indel frequency ([4]; 20000 nM): 1.03 ± 0.11; NHEJ-attributed indel frequency ([4]; 50000 nM): 0.525
